Measurements as given in US20180360803A1, “PHARMACEUTICAL COMPOSITION FOR TREATMENT OR PREVENTION OF NASH” (UBE INDUSTRIES, LTD., priority 2015, published 2018).

Experiments:
[1] = molecular target: T1, human LPA1 (Homo sapiens, UniProt Q92633); assay: Test of LPA1 antagonism ([35S]GTPγS binding, membrane fraction of RH 7777 cells expressing human LPA1); type: biochemical; conditions: LPA 100 nM, read-out: IC50, concentration required for 50% inhibition of the binding of LPA1 and [35S]GTPγS
T1 construct: purchased ChanTest A324; host or cells: RH 7777 cells (recombinant expression of human LPA1)
T1 sequence (Q92633 whole entry): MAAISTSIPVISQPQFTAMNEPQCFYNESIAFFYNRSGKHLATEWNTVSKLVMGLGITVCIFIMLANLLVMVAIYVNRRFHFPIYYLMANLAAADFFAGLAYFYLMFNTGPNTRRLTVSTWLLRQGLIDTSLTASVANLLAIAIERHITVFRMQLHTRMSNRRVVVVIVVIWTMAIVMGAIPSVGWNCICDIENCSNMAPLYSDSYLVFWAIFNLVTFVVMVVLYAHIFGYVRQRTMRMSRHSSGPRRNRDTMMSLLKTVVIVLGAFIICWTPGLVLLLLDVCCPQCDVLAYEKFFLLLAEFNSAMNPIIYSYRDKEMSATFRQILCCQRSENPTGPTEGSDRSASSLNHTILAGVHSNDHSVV
Method: 5 μg of a membrane fraction of RH 7777 cells expressing human LPA1 (A324, ChanTest) was suspended in a reaction buffer (20 mM HEPES, 100 mM NaCl, 10 mM MgCl2, 10 μM GDP, 5 μg saponin, 0.2% BSA, 0.1 nM [^35S]GTPγS (NEG030X, Perkin Elmer), pH 7.4). The test compounds dissolved in DMSO in various concentrations were each added to the suspension. After preincubation at 30° C. for 15 minutes, LPA (L7260, Sigma, final concentration 100 nM) was added, and the suspensions were incubated at 30° C. for 30 minutes. The membrane fractions were collected on a glass fiber filter (GF/B, Whatman) by using a cell harvester (M30, Brandel), and were washed with a 10 mM phosphate buffer (pH 7.4). The radioactivity of the membrane fractions was measured with a liquid scintillation analyzer (2900TR, Packard). The concentration (IC50) of the test compound required for 50% inhibition of the binding of LPA1 and [^35S]GTPγS was determined by non-linear regression analysis using EXSAS (Arm Systex).

[2] = test system: STAM mice (NASH models); assay: Non-alcoholic steatohepatitis (NASH) mouse models (STAM mice); type: in vivo; conditions: for NAFLD Activity score, compound administered group: 30 mg/kg twice daily orally for 3 weeks, age of six to nine weeks; for reduction in NAFLD activity score (statistical significance): versus vehicle group
Method: STAM (registered trademark) mice (Stelic Institute & Co., Inc.) were used as NASH models. The STAM (registered trademark) mice were prepared by subcutaneously administering 200 μg of streptozotocin (Sigma Aldrich) one time to the back of 2-day old male mice and feeding the mice with a high fat diet (High Fat Diet 32, CLEA Japan, Inc.) from the age of 4 weeks (Medical Molecular Morphology, 46 (2013) pp. 141-152).
The test compound was orally administered every day from the age of 5 or 6 weeks. At the age of 9 or 10 weeks, bloods and livers were collected under anesthesia. The bloods were subjected to biochemical tests. After the wet weights of the livers were measured, RNA was extracted from portions of the livers, and the expression levels of the inflammation and fibrosis marker genes were measured by the quantitative PCR method. Further, the amounts of hydroxyproline or collagen in the livers were measured. Paraffin sections or frozen sections were prepared from portions of the livers and were subjected to histopathological tests to determine the NAFLD activity scores, the fibrosis areas or the inflammation areas. The results were statistically analyzed using EXSUS (CAC EXICARE CORPORATION) or Prism 4 (GraphPad Software, Inc.).

Row | Structure (SMILES) | IC50 [1] [nM] | NAFLD Activity score, compound administered group [2] | reduction in NAFLD activity score (statistical significance) [2]
1 | Cc1cscc1[C@@H](C)OC(=O)Nc1cc(F)sc1-c1ccc(-c2ccc(C3(C(=O)O)CC3)cc2)cc1 [Production Example 7, (R)-1-{4′-[5-fluoro-3-({[1-(4-methylthiophen-3-yl)ethoxy]carbonyl}amino)thiophen-2-yl]-[1,1′-biphenyl]-4-yl}cyclopropanecarboxylic acid] | ≤ 100 |  | 
2 | COc1cc(-c2sc(Cl)cc2NC(=O)O[C@H](C)c2cc(F)ccc2F)ccc1-c1ccc(C2(C(=O)O)CC2)cc1 [Production Example 9, (R)-1-{4′-[5-chloro-3-({[1-(2,5-difluorophenyl)ethoxy]carbonyl}amino)thiophen-2-yl]-2′-methoxy-[1,1′-biphenyl]-4-yl}cyclopropanecarboxylic acid] |  | 3.1 ± 1.4 | significant (p<0.05) reduction
3 | COc1cc(-c2sc(F)cc2NC(=O)O[C@H](C)c2ccccc2Cl)ccc1-c1ccc(C2(C(=O)O)CC2)cc1 [Production Example 8, (R)-1-{4′-[3-({[1-(2-chloropheny)ethoxy]carbonyl}amino)-5-fluorothiophen-2-yl]-2′-methoxy-[1,1′-biphenyl]-4-yl}cyclopropanecarboxylic acid] | ≤ 100 |  | 
4 | COc1cc(-c2sc(Cl)cc2NC(=O)O[C@H](C)c2ccccc2)ccc1-c1ccc(C2(C(=O)O)CC2)cc1 [Production Example 6, (R)-1-[4′-(5-chloro-3-{[(1-phenylethoxy)carbonyl]amino}thiophen-2-yl)-2′-methoxy-[1,1′-biphenyl]-4-yl]cyclopropanecarboxylic acid] | ≤ 100 | 2.8 ± 1.0 | significant (p<0.05) reduction
